Source: ChEMBL document CHEMBL4482309, “Discovery of the first selective c5a2 receptor (c5l2/c5ar2) ligands” (2017)
Calls of active or inactive are those of the source.

What was measured:
[1] = target: C5a anaphylatoxin chemotactic receptor 2 (Homo sapiens) (UniProt Q9P296); experiment: Displacement of [125I]-C5a from C5a2 receptor (unknown origin) expressed in Flp-In CHO cell membranes at 100 uM incubated for 1 hr by microbeta scintillation counting assay
[2] = target: C5a anaphylatoxin chemotactic receptor 2 (Homo sapiens) (UniProt Q9P296); experiment: Displacement of [125I]-C5a from C5a2 receptor (unknown origin) expressed in Flp-In CHO cell membranes incubated for 1 hr by microbeta scintillation counting assay
[3] = target: T1, C5a anaphylatoxin chemotactic receptor 1 (Homo sapiens) (UniProt P21730); experiment: Displacement of [125I]-C5a from C5a1 receptor (unknown origin) expressed in Flp-In CHO cell membranes incubated for 1 hr by microbeta scintillation counting assay
T1 sequence (whole entry): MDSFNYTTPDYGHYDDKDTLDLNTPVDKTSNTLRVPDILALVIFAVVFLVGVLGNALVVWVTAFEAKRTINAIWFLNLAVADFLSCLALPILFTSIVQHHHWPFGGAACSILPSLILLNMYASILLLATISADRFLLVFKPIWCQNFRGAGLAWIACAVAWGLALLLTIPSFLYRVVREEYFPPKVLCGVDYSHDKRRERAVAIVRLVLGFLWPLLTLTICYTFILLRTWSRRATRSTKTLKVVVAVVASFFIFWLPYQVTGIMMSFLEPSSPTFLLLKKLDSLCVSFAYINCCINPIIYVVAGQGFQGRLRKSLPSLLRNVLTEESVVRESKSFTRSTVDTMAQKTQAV

[4] = target: C5a anaphylatoxin chemotactic receptor 2 (Homo sapiens) (UniProt Q9P296); experiment: Partial agonist activity at C5a2 receptor (unknown origin) expressed in HEK293 cells assessed as induction of beta-arrestin-2 recruitment incubated for 1 hr by BRET assay; format: cell-based
[5] = target: C5a anaphylatoxin chemotactic receptor 2 (Homo sapiens) (UniProt Q9P296); experiment: Partial agonist activity at C5a2 receptor (unknown origin) expressed in HEK293 cells assessed as induction of beta-arrestin-2 recruitment incubated for 1 hr by BRET assay relative to C5a; format: cell-based
[6] = target: T1, C5a anaphylatoxin chemotactic receptor 1 (Homo sapiens); experiment: Agonist activity at C5a1 receptor (unknown origin) expressed in HEK293 cells assessed as induction of beta-arrestin-2 recruitment at 100 uM incubated for 1 hr by BRET assay; format: cell-based
[7] = target: C5a anaphylatoxin chemotactic receptor 2 (Homo sapiens) (UniProt Q9P296); experiment: Partial agonist activity at human C5a2 receptor assessed as induction of beta-arrestin-2 recruitment by DiscoverX Path Hunter kit based assay
[8] = target: T1, C5a anaphylatoxin chemotactic receptor 1 (Homo sapiens); experiment: Partial agonist activity at human C5a1 receptor assessed as induction of beta-arrestin-2 recruitment by DiscoverX Path Hunter kit based assay
[9] = target: C5a anaphylatoxin chemotactic receptor 1/2 (Homo sapiens) (UniProt P21730+Q9P296); experiment: Induction of C5a1-C5a2 heteromer formation (unknown origin) expressed in HEK293 cells at 100 uM by BRET assay; format: cell-based
[10] = target: C5a anaphylatoxin chemotactic receptor 2 (Homo sapiens) (UniProt Q9P296); experiment: Agonist activity at C5a2 receptor in HMDM assessed as inhibition of LPS-induced TNFalpha release at 0.1 to 100 uM by ELISA
[11] = target: C5a anaphylatoxin chemotactic receptor 2 (Homo sapiens) (UniProt Q9P296); experiment: Agonist activity at C5a2 receptor in LPS-induced IHMDM assessed as effect on […] release at 0.1 to 100 uM by ELISA
[12] = target: C5a anaphylatoxin chemotactic receptor 2 (Homo sapiens) (UniProt Q9P296); experiment: Agonist activity at C5a2 receptor in HMDM assessed as inhibition of LPS-induced IL-6 release at 100 uM by ELISA
[13] = target: C5a anaphylatoxin chemotactic receptor 2 (Homo sapiens) (UniProt Q9P296); experiment: Agonist activity at C5a2 receptor in HMDM assessed as inhibition of LPS-induced TNFalpha release at 100 uM in presence of C5a1 antagonist PMX53 by ELISA
[14] = target: T2, Mitogen-activated protein kinase; ERK1/ERK2 (Homo sapiens) (UniProt P27361+P28482); experiment: Induction of ERK1/2 phosphorylation in HMDM at 100 uM incubated for 30 mins; format: protein assay
T2 sequence (P27361 whole entry, looked up): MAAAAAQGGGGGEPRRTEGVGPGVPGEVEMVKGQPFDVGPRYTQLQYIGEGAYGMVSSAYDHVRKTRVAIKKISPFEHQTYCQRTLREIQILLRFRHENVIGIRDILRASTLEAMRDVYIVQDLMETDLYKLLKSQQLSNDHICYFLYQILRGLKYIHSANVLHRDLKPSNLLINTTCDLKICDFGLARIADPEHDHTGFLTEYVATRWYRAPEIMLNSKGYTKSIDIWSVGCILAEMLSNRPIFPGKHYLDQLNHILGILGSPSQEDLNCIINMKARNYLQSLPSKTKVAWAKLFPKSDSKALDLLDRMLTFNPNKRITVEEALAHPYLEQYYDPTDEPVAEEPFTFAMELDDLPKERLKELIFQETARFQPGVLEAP
T2 sequence (P28482 whole entry, looked up): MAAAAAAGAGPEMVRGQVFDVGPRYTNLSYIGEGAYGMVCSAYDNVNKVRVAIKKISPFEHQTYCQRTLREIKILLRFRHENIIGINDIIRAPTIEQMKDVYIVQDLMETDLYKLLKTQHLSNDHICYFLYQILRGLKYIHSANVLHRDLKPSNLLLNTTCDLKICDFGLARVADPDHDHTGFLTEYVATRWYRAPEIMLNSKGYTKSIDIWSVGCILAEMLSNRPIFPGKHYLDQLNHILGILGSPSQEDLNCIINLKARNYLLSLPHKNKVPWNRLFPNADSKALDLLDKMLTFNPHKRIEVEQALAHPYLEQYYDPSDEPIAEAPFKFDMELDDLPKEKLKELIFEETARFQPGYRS

[15] = target: T2, Mitogen-activated protein kinase; ERK1/ERK2 (Homo sapiens); experiment: Agonist activity at C5a2 receptor in HMDM assessed as inhibition of C5a-induced induction of ERK1/2 phosphorylation in HMDM at 100 uM pre-incubated for 30 mins before C5a addition and measured after 10 mins
[16] = target: C5a anaphylatoxin chemotactic receptor 2 (Homo sapiens) (UniProt Q9P296); experiment: Agonist activity at C5a2 receptor in HMDM assessed as inhibition of LPS-induced IL-6 release at 10 to 100 uM by ELISA
Mus musculus [17] = experiment: Inhibition of C5a-induced neutrophil mobilization in iv dosed wild type mouse; format: functional, organism-based
Mus musculus [18] = experiment: Inhibition of C5a-induced neutrophil mobilization in iv dosed C5aR2 (-/-) mouse; format: functional, organism-based

Sequence of C5a anaphylatoxin chemotactic receptor 2 (Homo sapiens) (Q9P296 whole entry): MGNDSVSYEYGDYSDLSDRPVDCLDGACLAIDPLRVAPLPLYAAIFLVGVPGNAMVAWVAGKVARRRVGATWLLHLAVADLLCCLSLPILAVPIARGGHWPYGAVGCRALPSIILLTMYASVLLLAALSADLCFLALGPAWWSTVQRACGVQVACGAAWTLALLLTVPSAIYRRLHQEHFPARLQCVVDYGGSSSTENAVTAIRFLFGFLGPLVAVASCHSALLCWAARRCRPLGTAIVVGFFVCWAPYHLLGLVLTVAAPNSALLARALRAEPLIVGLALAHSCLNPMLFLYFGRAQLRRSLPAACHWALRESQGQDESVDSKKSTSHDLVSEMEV

Ac-LIRLWR-OH
52.9%: Activity [5]
inactive: Activity [6] | Activity [8] | Activity [9] | inhibition [10] | Activity [11] | inhibition [13] | Activity [14]
active: inhibition [1] | inhibition [2] Dose-dependent effect | inhibition [3] Dose-dependent effect | Activity [4] Dose-dependent effect | Activity [7] | inhibition [12] | inhibition [15]

Ac-RHYPYWR-OH
inactive: Activity [6] | Activity [8] | Activity [9] | inhibition [10] | Activity [11] | inhibition [13] | Activity [14] | inhibition (Mus musculus [18])
active: inhibition [1] | inhibition [2] Dose-dependent effect | inhibition [3] Dose-dependent effect | Activity [4] Dose-dependent effect | Activity [7] | inhibition [16] | inhibition [15] | inhibition (Mus musculus [17])
28.8%: Activity [5]
